Measurements reported in patent publication US6709830B2, “Methods for modulating the activation of a lymphocyte expressed G protein coupled receptor involved in cell proliferation, autoimmunity and inflammation” (The Regents of the University of California, priority 1997, dated 2004).

Columns and labels:
[1] = system: CHO GFP cells; assay: ERK MAP kinase assay in control CHO GFP cells; format: cell-based, Chinese hamster; details: serum starved CHO GFP cells, LPC 0.01 μM to 10 μM, 10 minutes
Experimental: Further exploration of the cellular response to LPC was undertaken in Chinese hamster ovary (CHO) cells. Stable lines of G2A expressing CHO cells were derived by infection with retroviruses encoding G2A.GFP (MSCV G2A.GFP). We examined ERK MAP kinase activity in control CHO GFP and CHO G2A.GFP cells in response to varying doses of LPC (0.01 μM to 10 μM).
CHO GFP or CHO G2A.GFP cells were serum starved for 18 hours prior to treatment with LPC for 10 minutes at 37° C. Western blotting was performed to detect activated p44/42 ERK MAP kinase using a specific phospho-ERK antibody (Santa Cruz Biotechnology,).

[2] = target: T1, G2A.GFP fusion receptor (Mus musculus, UniProt Q9Z282); assay: Internalisation of G2A.GFP in HEK 293 G2A.GFP cells (confocal microscopy); format: cell-based; details: 2 hours, serum starved HEK 293 G2A.GFP cells
T1 construct: expressed in transfected cells; host or cells: HEK 293 cells infected with amphotropic MSCV G2A.GFP retrovirus
T1 sequence (Q9Z282 1-382): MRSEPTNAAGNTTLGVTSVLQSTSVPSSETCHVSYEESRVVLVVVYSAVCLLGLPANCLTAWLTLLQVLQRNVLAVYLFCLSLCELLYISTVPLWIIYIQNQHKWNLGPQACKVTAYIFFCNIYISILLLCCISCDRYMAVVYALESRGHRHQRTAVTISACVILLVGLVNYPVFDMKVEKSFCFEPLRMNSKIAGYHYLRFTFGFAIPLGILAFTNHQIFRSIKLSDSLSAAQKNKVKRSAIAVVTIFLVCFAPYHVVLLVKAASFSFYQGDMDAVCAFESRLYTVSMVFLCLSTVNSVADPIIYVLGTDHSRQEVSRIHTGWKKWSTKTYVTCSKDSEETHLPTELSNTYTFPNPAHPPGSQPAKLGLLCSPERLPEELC
Experimental: Agonist dependent receptor internalisation is a feature of GPCRs. G2A.GFP expressing HEK 293 cells (HEK 293 G2A.GFP) were generated by infection with amphotropic MSCV G2A.GFP retroviruses. In serum starved HEK 293 G2A.GFP cells, G2A.GFP is expressed predominantly on the plasma membrane. LPC (0.1 μM), as well as SPC (1 μM), induced internalisation of G2A.GFP in over 90% of cells (FIG. 6). Neither LPA, S-1-P or PAF induced G2A internalisation, which is consistent with LPC acting as a specific ligand for G2A. Treatment of HEK 293 G2A.GFP cells with SPC at low concentrations (0.1 μM) induced receptor internalisation in fewer cells (<50%).
HEK 293 G2A.GFP cells were seeded onto glass coverslips and subsequently serum starved for 16-24 hours prior to treatment with lipids. Two hours following lipid treatment, coverslips were washed with cold PBS and fixed with PBS/4% paraformaldehyde. Subcellular localisation of G2A.GFP was visualised under a confocal fluorescence microscope with a 60× oil immersion lens.

With lysophosphatidylcholine [LPC] the “ERK MAP kinase activity in control cells” value [1] was “did not respond” and the “induction of G2A internalisation” value [2] was “internalisation of G2A.GFP induced by LPC”.
